Results from patent publication US12055547B2, “TMEM active test and uses thereof in diagnosis, prognosis and treatment of tumors” (Albert Einstein College of Medicine, priority 2015, dated 2024).

How the values were obtained:
[1] = system: Tie2 macrophage function in TMEM; assay: TMEM density and TMEM activity (IV-dextran/ZO-1 staining) in tumor after rebastinib; type: in vivo
Excerpt: FIG. 11A-11B. […] (B) Quantification of vascular permeability activity of tumor TMEM using vascular permeability marker IV-dextran/ZO-1 staining intensity (n=7 and 9; * , P=0.0177).
The relative activity of TMEM can be quantified in (e.g., FFPE) tissue sections in several ways, e.g.: • 1. as the ratio of IV-dextran (or other IV contrast agent) that has leaked from the blood vessel into the tissue at the time of Formaldehyde Fixation after IV injection of contrast agent in preparation for FFPE (measure of local vascular permeability) divided by ZO-1 or VE-Cad staining intensity at TMEM (FIG. 11). Higher dextran/ZO-1=more TMEM activity; • 2. as the ratio of ZO-1 or VE-Cad staining intensity at TMEM per area of blood vessel (CD31 staining area) (FIG. 12). Higher VE-Cad or ZO-1/CD31=less TMEM activity; • 3. as the absolute intensity of ZO-1 or VE-Cad staining intensity at TMEM sites (FIG. 10). Higher VE-Cad staining=less TMEM activity.
The activity status of TMEM (TMEM^Active) in patient tissue samples can be used to assess the efficacy of dissemination inhibitor drugs that inhibit TMEM activity. For example, observe the effects of the following dissemination inhibitors on TMEM^Active using the quantitation methods for TMEM activity described in #1-3 above as follows: • a. Rebastinib, the Tie2 inhibitor which blocks VEGF^Hi TMEM macrophage function, (FIG. 11); • b. […]

[2] = system: macrophages; assay: Macrophage depletion in PyMT tumors in the MAFIA mouse model; type: in vivo; details: vs vehicle
Excerpt: Summary Tumor cell intravasation at sites of transient vascular permeability associated with TMEM was studied using mouse mammary tumor virus—polyoma middle T antigen (MMTV-PyMT) autochthonous and implanted models of human patient-derived mammary carcinoma. Single cell resolution of cell activity at TMEM in live animals was achieved using extended time-lapse imaging on a custom-built two-laser multiphoton microscope. To investigate the role of macrophages in tumor cell intravasation and blood vessel permeability, the MAFIA mouse model was used to deplete macrophages. Observation of extravascular dextran, vascular junction proteins and protein expression in tissue was performed using immunofluorescence microscopy. Further investigation of the mechanism of macrophage-mediated tumor cell intravasation and blood vessel permeability at TMEM utilized anti-mouse-VEGFA inhibitory antibody and the ablation of Vegfa expression in monocytes using a myeloid-specific (Csf1r promoter), tamoxifen-inducible Cre expressing mouse strain was crossed with Vegfa^flox/flox mice with gene ablation induced with tamoxifen.
Immunofluorescence image analysis. […] The remaining extravascular dextran area, and blood vessel area were then measured. […]

Row | Compound | TMEM density in 10 40× fields ([1]; FIG. 11A) | vascular permeability activity of tumor TMEM (IV-dextran/ZO-1 staining intensity) ([1]; FIG. 11B, n=7 and 9, P=0.0177) | blood vessel permeability (extravascular 155 kDa dextran-TMR) ([2]; FIG. 5E) | tumor cell intravasation (circulating tumor cells) ([2]; FIG. 5F)
1 | CNC(=O)c1cc(Oc2ccc(NC(=O)Nc3cc(C(C)(C)C)nn3-c3ccc4ncccc4c3)c(F)c2)ccn1 [Rebastinib] | not significant | inhibits TMEM activity |  | 
2 | CC[C@H](C(=O)N1CCCC[C@H]1C(=O)O[C@H](CCc1ccc(OC)c(OC)c1)c1cccc(OCC(=O)NCC(CNC(=O)COc2cccc([C@@H](CCc3ccc(OC)c(OC)c3)OC(=O)[C@@H]3CCCCN3C(=O)[C@@H](CC)c3cc(OC)c(OC)c(OC)c3)c2)CN(C)C)c1)c1cc(OC)c(OC)c(OC)c1 [B/B homodimerizer] |  |  | reduces | reduces
